{"source": "patent US6342481B1", "about": "“Oligopeptides derived from C-reactive protein fragments” (priority 1993, dated 2002)", "key": {"[1]": {"tested_on": "Sprague Dawley rats injected with LPS (Salmonella Enteritidis)", "test": "Survival of rats after intravenous LPS (septic shock test)", "type": "in vivo, rat", "details": "male Sprague Dawley rats, LPS i.v. at dose giving about 30% survival, compound 3 μg/kg i.v. immediately after, monitored 7 days; control (LPS only) 23", "protocol": "Male Sprague Dawley rats (175-200 g, Charles river, Calco, Italy) were intravenously injected with a dose of LPS (Salmonella Enteritidis, Sigma) in 0.2 ml of physiological solution, previously determined on the same batch of animals, as giving about 30% survival. Thereafter they were randomized into groups of at least 18 animals and each immediately inoculated intravenously with 3 μg/kg of some of the compounds representative of the invention. One group of animals was treated with LPS only and considered as the control. The animals were monitored for the following 7 days to determine their survival."}, "[2]": {"tested_on": "Wistar rats with left coronary artery ligation", "test": "Cardioprotective activity following ischemia induced by occlusion of the left coronary artery in the anesthetized rat", "type": "in vivo", "details": "anesthetized male Wistar rats, 0.1 μg/kg/min i.v., left coronary artery ligated for 30 minutes", "from_the_text": "The cardiovascular activity of the compounds of the invention was investigated by means of a test aiming at evaluating the cardioprotective activity following ischemia induced by the occlusion of the left coronary artery in the anestethized rat, performed substantially as described by C. Clark et al. Journ. Exp. Methods, 3, 357, 1980. It is known that the occlusion of the coronary artery causes several events altering the ECG-pattern including, among others, hypoxia, arrhythmias, with eventual death of the laboratory animals.\nIn this test, male Wistar rats, (350-450 g, Charles River) were divided into groups of at least 18 animals, anestethized with nembutal (65 mg/kg i.p.) and each connected to an electrocardiograph for continuously monitoring the ECG. The animals, maintained under artificial ventilation, underwent thoracotomy and, after incision of the pericardium, a suture thread was passed around the left coronary artery, near to its origins. The animals were then administered intravenously with 0.1 μg/kg/min of the compounds of the invention dissolved in saline. One group of animals (control group) were administered intravenously with saline (5 ml/kg/hr). After 15 minutes recovery, and provided that electocardiographic alteration was not recorded, the left coronary artery was ligated and the ligature was maintained for 30 minutes. During this period the animals were monitored and ventricular tachycardia (VT), ventricular fibrillations (VF) and mortality were7 assessed."}}, "note": "Residues, ends and D or L forms follow the SMILES beside them.", "data": [{"molecule": "CC(C)CN(C(=O)CN)[C@@H](CCCCN)C(=O)N1CCC[C@H]1C(=O)O", "note": "[Example 9, H-Gly-(isoBut)Lys-Pro-OH.AcOH]", "values": [{"measurement": "Survival percentage", "setting": "[1]", "value": 39, "unit": "%"}]}, {"molecule": "N=C(N)NCCC[C@H](NC(=O)[C@@H]1CCCN1C(=O)[C@@H]1CCCN1C(=O)CN)C(=O)O", "note": "[Example 11, H-Gly-Pro-Pro-Arg-OH.AcOH] (H-GPPR-OH)", "values": [{"measurement": "Survival percentage", "setting": "[1]", "value": 57, "unit": "%"}]}, {"molecule": "CCN[C@@H](CCCCN)C(=O)N1CCC[C@H]1C(=O)O", "note": "[Example 12, H-(Et)Lys-Pro-OH.AcOH]", "values": [{"measurement": "Mortality %", "setting": "[2]; control 29", "value": 12, "unit": "%"}, {"measurement": "Incidence % V.F. (ventricular fibrillations)", "setting": "[2]; control 86", "value": 75, "unit": "%"}, {"measurement": "Incidence % V.T. (ventricular tachycardia)", "setting": "[2]; control 100", "value": 10, "unit": "%"}, {"measurement": "Survival percentage", "setting": "[1]", "value": 44, "unit": "%"}]}, {"molecule": "H-Gly-(Bzl)Lys-Pro-Arg-OH.2AcOH [Example 10]", "values": [{"measurement": "Survival percentage", "setting": "[1]", "value": 43, "unit": "%"}]}, {"molecule": "H-Gly-(Et)Lys-Pro-Arg-OH.2AcOH [Example 15]", "values": [{"measurement": "Survival percentage", "setting": "[1]", "value": 33, "unit": "%"}]}, {"molecule": "H-Gly-(Et)Lys-Pro-Lys-OH.AcOH [Example 14]", "values": [{"measurement": "Survival percentage", "setting": "[1]", "value": 48, "unit": "%"}]}]}
